# Assay results reported in patent publication US20230131402A1, “SPIRO-LACTAM NMDA RECEPTOR MODULATORS AND USES THEREOF” (Aptinyx Inc., priority 2016, published 2023).
# Like-named read-outs stand apart in the source and are kept apart here.
# Assays:
# NMDAR2B = target: T1, NMDAR2B (Homo sapiens, UniProt Q13224); experiment: [3H]MK-801 binding, NMDAR2B expressing HEK cell membranes; assay type: biochemical; settings: 50 μM glutamate
# T1 construct: expressed in transfected cells; host or cells: HEK cells (membrane extract)
# Outline: (§1)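 HEK membranes expressing NMDAR2A, 2B, 2C or 2D (300 μg protein) were preincubated 15 min at 25 °C with 50 μM glutamate and compound (1×10^−15–1×10^−7 M), then 15 min with 0.3 μCi [3H]MK-801 (nonequilibrium) before filtration. Baseline-subtracted binding was normalized to 1 mM glycine, yielding EC50 and % maximal activity.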
# [1] = Oral pharmacokinetics (plasma, brain, CSF); settings: rat, per os, 10 mg/kg
# Protocol: (§6) Plasma, brain, and CSF samples were analyzed at various time points over a 24 hour period.
# NMDAR2A = target: T2, NMDAR2A (Homo sapiens, UniProt Q12879); experiment: [3H]MK-801 binding, NMDAR2A expressing HEK cell membranes; assay type: biochemical; settings: 50 μM glutamate
# T2 construct: expressed in transfected cells; host or cells: HEK cells (membrane extract)
# Outline: as §1
# NMDAR2C = target: T3, NMDAR2C (Homo sapiens, UniProt Q14957); experiment: [3H]MK-801 binding, NMDAR2C expressing HEK cell membranes; assay type: biochemical; settings: 50 μM glutamate
# T3 construct: expressed in transfected cells; host or cells: HEK cells (membrane extract)
# Protocol: (§2) Assays were conducted as described by Moskal et al., “GLYX-13: a monoclonal antibody-derived peptide that acts as an N-methyl-D-aspartate receptor modulator,” Neuropharmacology, 49, 1077-87, 2005. These studies were designed to determine if the test compounds act to facilitate NMDAR activation in NMDAR2A, NMDAR2B, NMDAR2C or NMDAR2D expressing HEK cell membranes as measured by increases in [^3H]MK-801 binding.
# (§3) In the assay, 300 μg of NMDAR expressing HEK cell membrane extract protein was preincubated for 15 minutes at 25° C. in the presence of saturating concentrations of glutamate (50 μM) and varying concentrations of test compound (1×10^−15M−1×10^−7M), or 1 mM glycine. Following the addition of 0.3 μCi of [^3H]MK-801 (22.5 Ci/mmol), reactions were again incubated for 15 minutes at 25° C. (nonequilibrium conditions). Bound and free [^3H]MK-801 were separated via rapid filtration using a Brandel apparatus.
# (§4) In analyzing the data, the DPM (disintegrations per minute) of [^3H]MK-801 remaining on the filter were measured for each concentration of test compound or for 1 mM glycine. The DPM values for each concentration of a ligand (N=2) were averaged. The baseline value was determined from the best fit curve of the DPM values modeled using the GraphPad program and the log(agonist) vs. response(three parameters) algorithm was then subtracted from all points in the dataset. The % maximal [^3H]MK-801 binding was then calculated relative to that of 1 mM glycine: all baseline subtracted DPM values were divided by the average value for 1 mM glycine. The EC50 and % maximal activity were then obtained from the best fit curve of the % maximal [^3H]MK-801 binding data modelled using the GraphPad program and the log(agonist) vs. response(three parameters) algorithm.
# (§5) The tables below summarize the results for the wild type NMDAR agonists NMDAR2A, NMDAR2B, NMDAR2C, and NMDAR2D, and whether the compound is not an agonist (−), is an agonist (+), or is a strong agonist (++), where column A is based on the % maximal [^3H]MK-801 binding relative to 1 mM glycine (−=0; <100%=+; and >100%=++); and column B is based on log EC50 values (0=−; ≥1×10^−9M (e.g., −8)=+; and <1×10^−9M (e.g., −10)=++).
# IV pharmacokinetics = assay type: in vivo, Sprague Dawley rats; settings: rat, 2 mg/kg, normal saline (compounds marked * in 1% NMP and 99% normal saline)
# Text: The table below summarizes the results of the IV pharmacokinetics.
# [2] = tested on: positive (hedonic) 50-kHz ultrasonic vocalizations (USVs); experiment: Positive emotional learning (PEL) test; assay type: in vivo, rats; settings: rat, PO, dose .001-1 mg/kg, 1 h after administration
# Protocol: Experiments were conducted as described in Burgdorf et al., “The effect of selective breeding for differential rates of 50-kHz ultrasonic vocalizations on emotional behavior in rats,” Devel. Psychobiol., 51:34-46 (2009). Rat 50-kHz ultrasonic vocalization (hedonic USVs) is a validated model for the study of positive affective state and is best elicited by rough-and-tumble play.
# The PEL assay measures the acquisition of positive (hedonic) 50-kHz ultrasonic vocalizations (USVs) to a social stimulus, heterospecific rough and tumble play stimulation. Heterospecific rough-and-tumble play stimulation was administered by the experimenter's right hand. One hour after administration of test compound or vehicle negative control (0.5% sodium carboxymethyl cellulose in 0.9% sterile saline vehicle), animals received 3 min of heterospecific rough-and-tumble play that consisted of alternating 15 sec blocks of heterospecific play and 15 sec of no-stimulation. High frequency ultrasonic vocalizations (USVs) were recorded and analyzed by sonogram with Avasoft SASlab Pro (Germany) as previously described by Burgdorf et al., “Positive emotional learning is regulated in the medial prefrontal cortex by GluN2B-containing NMDA receptors,” Neuroscience, 192:515-523 (2011). Frequency modulated 50-kHz US V s that occurred during each of the no-stimulation periods were quantified to measure PEL. Animals were not habituated to play stimulation before testing. Positive emotional learning was measured during the conditioned stimulus (CS) trials preceding the tickle unconditioned stimulus (UCS) trials. Animals received 15 second trials consisting of 6 CS and 6 UCS trials each (3 min total).
# The table below summarizes the findings. As each experiment includes its own vehicle group, an example (typical) vehicle score is shown. Max effect (mean number of 50 kHz USVs per 15 seconds) is reported as ∧: <6.0; *: 6.0-7.6; **: 7.7-10; ***: 10.1-20.
# NMDAR2D = target: T4, NMDAR2D (Homo sapiens, UniProt O15399); experiment: [3H]MK-801 binding, NMDAR2D expressing HEK cell membranes; assay type: biochemical; settings: 50 μM glutamate
# T4 construct: expressed in transfected cells; host or cells: HEK cells (membrane extract)
# Protocol: as §2, §3, §4, §5
# [3] = Sprague Dawley, rat, in vivo, po, 10 mg/kg
# Protocol: as §6
# in vivo = settings: Sprague Dawley, rat, po, 10 mg/kg
# Protocol: as §6
# [4] = normal saline (compounds marked * in 1% NMP and 99% normal saline)
# T2 sequence (Q12879 23-1464, species assumed, other chains not shown): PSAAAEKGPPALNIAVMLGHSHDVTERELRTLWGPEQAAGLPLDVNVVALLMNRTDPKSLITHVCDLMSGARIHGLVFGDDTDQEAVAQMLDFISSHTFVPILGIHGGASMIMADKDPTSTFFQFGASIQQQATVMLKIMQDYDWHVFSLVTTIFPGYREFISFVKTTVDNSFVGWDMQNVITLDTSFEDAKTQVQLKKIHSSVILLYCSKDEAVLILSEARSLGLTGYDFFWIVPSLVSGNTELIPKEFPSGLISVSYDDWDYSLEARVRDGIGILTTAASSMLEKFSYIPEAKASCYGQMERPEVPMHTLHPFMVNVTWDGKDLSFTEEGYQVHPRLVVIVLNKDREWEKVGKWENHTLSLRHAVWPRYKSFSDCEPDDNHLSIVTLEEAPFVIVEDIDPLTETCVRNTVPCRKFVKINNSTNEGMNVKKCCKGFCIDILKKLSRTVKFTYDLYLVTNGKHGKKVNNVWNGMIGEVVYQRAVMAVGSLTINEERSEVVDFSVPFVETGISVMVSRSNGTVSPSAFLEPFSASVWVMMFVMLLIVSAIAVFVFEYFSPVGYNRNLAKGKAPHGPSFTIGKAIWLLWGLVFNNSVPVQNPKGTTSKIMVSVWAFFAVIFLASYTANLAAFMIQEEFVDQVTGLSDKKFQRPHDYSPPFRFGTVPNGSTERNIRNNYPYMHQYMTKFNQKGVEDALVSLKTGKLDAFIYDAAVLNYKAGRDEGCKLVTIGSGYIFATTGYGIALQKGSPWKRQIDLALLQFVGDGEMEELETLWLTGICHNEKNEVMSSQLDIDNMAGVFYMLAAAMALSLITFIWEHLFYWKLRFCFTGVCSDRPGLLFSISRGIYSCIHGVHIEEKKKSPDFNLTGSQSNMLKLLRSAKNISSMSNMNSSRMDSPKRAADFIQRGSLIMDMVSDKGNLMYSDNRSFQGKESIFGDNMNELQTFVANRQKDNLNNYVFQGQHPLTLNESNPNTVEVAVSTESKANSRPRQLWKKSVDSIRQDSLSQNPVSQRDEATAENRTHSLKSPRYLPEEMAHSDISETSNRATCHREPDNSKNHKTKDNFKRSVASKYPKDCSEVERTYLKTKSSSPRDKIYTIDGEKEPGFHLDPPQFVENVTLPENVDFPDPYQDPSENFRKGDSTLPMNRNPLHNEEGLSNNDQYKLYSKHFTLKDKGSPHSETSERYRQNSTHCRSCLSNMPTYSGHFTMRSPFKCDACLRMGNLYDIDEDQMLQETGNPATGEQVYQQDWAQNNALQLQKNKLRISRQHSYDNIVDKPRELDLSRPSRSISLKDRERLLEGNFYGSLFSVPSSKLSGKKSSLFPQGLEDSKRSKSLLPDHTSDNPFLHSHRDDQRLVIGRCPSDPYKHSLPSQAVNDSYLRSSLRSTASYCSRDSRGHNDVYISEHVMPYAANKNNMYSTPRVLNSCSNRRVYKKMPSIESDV
# T3 sequence (Q14957 20-1233, species assumed, other chains not shown): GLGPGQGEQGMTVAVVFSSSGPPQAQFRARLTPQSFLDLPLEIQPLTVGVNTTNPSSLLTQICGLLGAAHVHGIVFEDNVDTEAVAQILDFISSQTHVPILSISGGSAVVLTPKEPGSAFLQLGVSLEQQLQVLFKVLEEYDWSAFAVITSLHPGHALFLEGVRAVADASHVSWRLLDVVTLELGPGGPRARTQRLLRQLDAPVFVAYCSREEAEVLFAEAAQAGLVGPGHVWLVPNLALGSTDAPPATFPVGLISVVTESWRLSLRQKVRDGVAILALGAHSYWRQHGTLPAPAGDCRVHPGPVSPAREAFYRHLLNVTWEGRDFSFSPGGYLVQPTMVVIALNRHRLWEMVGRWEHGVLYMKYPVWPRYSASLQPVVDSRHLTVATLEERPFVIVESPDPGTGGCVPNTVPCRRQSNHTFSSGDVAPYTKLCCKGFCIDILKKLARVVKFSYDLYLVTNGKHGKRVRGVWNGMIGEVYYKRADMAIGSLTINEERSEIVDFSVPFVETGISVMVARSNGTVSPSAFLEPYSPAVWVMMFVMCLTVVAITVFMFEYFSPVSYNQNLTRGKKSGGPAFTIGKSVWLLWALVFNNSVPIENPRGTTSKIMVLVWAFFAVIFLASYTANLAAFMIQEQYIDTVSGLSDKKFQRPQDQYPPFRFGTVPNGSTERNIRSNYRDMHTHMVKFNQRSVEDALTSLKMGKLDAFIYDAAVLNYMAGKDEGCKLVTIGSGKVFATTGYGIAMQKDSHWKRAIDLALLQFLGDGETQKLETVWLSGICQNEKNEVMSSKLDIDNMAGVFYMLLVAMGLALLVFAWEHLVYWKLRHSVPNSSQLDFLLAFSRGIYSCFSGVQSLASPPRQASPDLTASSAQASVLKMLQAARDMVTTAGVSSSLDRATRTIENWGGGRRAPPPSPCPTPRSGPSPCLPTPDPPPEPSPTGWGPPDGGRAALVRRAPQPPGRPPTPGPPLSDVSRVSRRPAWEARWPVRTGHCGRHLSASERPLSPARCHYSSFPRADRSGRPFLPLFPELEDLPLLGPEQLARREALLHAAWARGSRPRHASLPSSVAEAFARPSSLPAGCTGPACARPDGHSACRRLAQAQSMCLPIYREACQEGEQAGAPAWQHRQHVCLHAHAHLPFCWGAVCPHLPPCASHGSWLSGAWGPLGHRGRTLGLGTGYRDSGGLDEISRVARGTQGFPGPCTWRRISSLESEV
# T1 sequence (Q13224 27-1484, species assumed, other chains not shown): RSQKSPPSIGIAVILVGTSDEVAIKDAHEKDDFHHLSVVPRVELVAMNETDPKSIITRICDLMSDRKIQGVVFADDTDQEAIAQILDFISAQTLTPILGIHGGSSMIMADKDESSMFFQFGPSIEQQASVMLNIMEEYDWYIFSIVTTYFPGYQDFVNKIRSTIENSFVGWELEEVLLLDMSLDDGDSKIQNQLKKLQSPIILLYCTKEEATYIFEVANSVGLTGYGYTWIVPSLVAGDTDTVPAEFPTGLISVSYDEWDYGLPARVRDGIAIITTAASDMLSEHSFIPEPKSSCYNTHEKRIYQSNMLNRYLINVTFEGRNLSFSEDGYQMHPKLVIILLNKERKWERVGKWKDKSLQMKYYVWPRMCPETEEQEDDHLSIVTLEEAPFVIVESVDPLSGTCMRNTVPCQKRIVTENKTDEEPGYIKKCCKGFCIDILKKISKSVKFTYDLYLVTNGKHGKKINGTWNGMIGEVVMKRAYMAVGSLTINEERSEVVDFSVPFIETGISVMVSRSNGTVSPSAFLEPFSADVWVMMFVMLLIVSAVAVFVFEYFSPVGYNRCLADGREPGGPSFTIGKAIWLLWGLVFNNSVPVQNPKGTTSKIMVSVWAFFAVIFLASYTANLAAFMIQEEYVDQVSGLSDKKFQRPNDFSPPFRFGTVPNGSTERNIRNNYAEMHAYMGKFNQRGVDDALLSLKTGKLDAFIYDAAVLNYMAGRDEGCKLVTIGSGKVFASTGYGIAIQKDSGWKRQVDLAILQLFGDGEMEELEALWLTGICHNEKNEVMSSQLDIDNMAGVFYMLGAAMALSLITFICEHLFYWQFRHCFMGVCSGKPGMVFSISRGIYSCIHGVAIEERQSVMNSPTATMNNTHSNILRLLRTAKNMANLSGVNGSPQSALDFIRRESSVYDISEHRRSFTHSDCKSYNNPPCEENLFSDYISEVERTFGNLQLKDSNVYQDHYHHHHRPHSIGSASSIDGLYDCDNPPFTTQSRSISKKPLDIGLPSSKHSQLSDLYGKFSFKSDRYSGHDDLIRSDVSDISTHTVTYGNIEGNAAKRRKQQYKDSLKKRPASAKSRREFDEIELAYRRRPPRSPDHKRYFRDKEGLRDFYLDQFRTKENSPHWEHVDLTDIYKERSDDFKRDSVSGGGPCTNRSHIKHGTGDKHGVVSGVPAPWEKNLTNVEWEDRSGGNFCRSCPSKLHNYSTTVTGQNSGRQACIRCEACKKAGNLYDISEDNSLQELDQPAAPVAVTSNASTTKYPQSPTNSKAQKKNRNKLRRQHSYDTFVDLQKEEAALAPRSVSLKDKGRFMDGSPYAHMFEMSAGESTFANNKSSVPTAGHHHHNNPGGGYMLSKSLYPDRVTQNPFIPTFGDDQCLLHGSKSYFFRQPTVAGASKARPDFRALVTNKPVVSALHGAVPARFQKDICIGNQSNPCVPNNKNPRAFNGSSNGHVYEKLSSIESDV
compound,measurement,setting,value
"CN1CCN(Cc2ccccc2)C2(CNC2=O)C1 (single isomer, unassigned) [EG-1, 5-Benzyl-8-Methyl-2,5,8-Triazaspiro[3.5]Nonan-1-One]",NMDAR2B A: % maximal [3H]MK-801 binding relative to 1 mM glycine,NMDAR2B,+ (<100%=+)
same,EC50,NMDAR2B; read-out: NMDAR2B B: log EC50 (converted),< 1 nM
same,% F,[1],14%
same,CSF Cmax,[1]; CSF,367.18 ng/mL
same,Brain Cmax,[1]; brain,334.3 ng/mL
same,AUClast,[1]; [4],428.79 ng·h/mL
same,Tmax,[1]; [4],0.25 h
same,Cmax,"[1]; plasma, normal saline (compounds marked * in 1% NMP and 99% normal saline)",700.4 ng/mL
same,NMDAR2A A: % maximal [3H]MK-801 binding relative to 1 mM glycine,NMDAR2A,+ (<100%=+)
same,EC50,NMDAR2A; read-out: NMDAR2A B: log EC50 (converted),< 1 nM
same,NMDAR2C A: % maximal [3H]MK-801 binding relative to 1 mM glycine,NMDAR2C,++ (>100%=++)
same,EC50,NMDAR2C; read-out: NMDAR2C B: log EC50 (converted),> 1 nM
same,AUClast,IV pharmacokinetics,622.05 ng·h/mL
same,C0,IV pharmacokinetics,2010.43 ng/mL
same,Cl,IV pharmacokinetics,53.51 mL/min/kg
same,T1/2,IV pharmacokinetics,0.43 h
same,Vss,IV pharmacokinetics,0.96 L/kg
same,Max Effect (mean number of 50 kHz USVs per 15 seconds),[2],*** (***: 10.1-20)
same,NMDAR2D A: % maximal [3H]MK-801 binding relative to 1 mM glycine,NMDAR2D,− (−=0)
"C[C@@H](O)[C@H](N)C(=O)N1CCN(C)CC12CNC2=O (single isomer, unassigned) [EJ-1, 5-(L-Threonyl)-8-Methyl-2,5,8-Triazaspiro[3.5]Nonan-1-One]",% F,[3],4%
same,AUC(0-t),in vivo; AUClast,568 ng·h/mL
same,Cmax,in vivo; Cmax,186 ng/mL
same,Tmax,in vivo; Tmax,0.75 h
same,AUC(0-t),"IV pharmacokinetics; Sprague Dawley, in vivo, iv",3160 ng·h/mL
same,clearance,"IV pharmacokinetics; Sprague Dawley, in vivo, iv",10.5 mL/min/kg
same,half-life,"IV pharmacokinetics; Sprague Dawley, in vivo, iv",1.3 h
same,C0,"IV pharmacokinetics; Sprague Dawley, in vivo, iv, read-out: C0",4030 ng/mL
same,Vss,IV pharmacokinetics,0.62 L/kg
"C[C@@H](O)[C@H](N)C(=O)N1CCN(C)CC12CNC2=O (single isomer, unassigned) [EJ-2, 5-(L-Threonyl)-8-Methyl-2,5,8-Triazaspiro[3.5]Nonan-1-One]",% F,[3],9%
same,AUClast,[3],811.97 ng·h/mL
same,Cmax,[3],201.12 ng/mL
same,Tmax,[3],1.33 h
same,AUClast,IV pharmacokinetics,1737 ng·h/mL
same,C0,IV pharmacokinetics,3415.56 ng/mL
same,Cl,IV pharmacokinetics,18.95 mL/min/kg
same,T1/2,IV pharmacokinetics,1.59 h
same,Vss,IV pharmacokinetics,1.35 L/kg
